The record followed here is BindingDB's records for PubMed 33309162 (Universita Degli Studi di Palermo, 2021).

This test addresses PI3K catalytic subunit alpha (PIK3CA), rat. Description: Inhibition of PI3Kalpha in rat Rat1 cells reduction in phosphorylation of AKT at Ser473 residue incubated for 2 hrs by alpha screen assay.

In the case of `N#Cc1c(N)ncnc1N1CSC[C@H]1c1nc2cccc(Cl)c2c(=O)n1-c1cccs1`, the half-maximal inhibitory concentration (IC50) was greater than 10 µM.

With `Cn1nccc1-n1c([C@@H]2CSCN2c2ncnc(N)c2C#N)nc2cccc(Cl)c2c1=O`, the IC50 was greater than 10 µM.

Consider `CN1CCN(C)/C(=N/c2ccc([N+](=O)[O-])cc2C(=O)Nc2ccccc2)C1`, for which the concentration for half-maximal inhibition (IC50) is greater than 10 µM.
